Test results: paper PMC5830615 (Scientific Reports, 2018)

Legend:
[1] = test system: H188 (Epac1-based cAMP biosensor); assay: FRET response of biosensor H188 to cAMP analogs and Epac inhibitors in HEK293-H188-C24 cells; assay type: cell-based; conditions: for Effect on ΔFRET measured in response to 8-pCPT-2′-O-Me-cAMP-AM: Epac inhibitor co-applied
Description: H188 contains the cAMP sensor Epac1 in which the full-length protein is truncated to remove the Disheveled, Egl-10, and Pleckstrin (DEP) membrane-targeting domain so that its expression is confined largely to the cytoplasm (Fig. 2a,b)[30]. T781A and F782A mutations introduced within the CDC25 homology domain disrupt guanine nucleotide exchange factor (GEF) activity so that binding of cAMP to H188 is not linked to downstream signaling events mediated by the Epac1 effector protein Rap1 GTPase (Fig. 2a)[30]. In H188 the Epac1 backbone is flanked by an mTurquoise2Δ FRET donor chromophore at the N-terminus, and tandem cp173 Venus-Venus FRET acceptor chromophores at the C-terminus (Fig. 2a). Binding of cAMP reduces FRET so that when exciting with 440 nm light, there is an increase of 485 nm (mTuquoise2Δ) and a decrease of 535 nm (cp173 Venus-Venus) emission fluorescence. This ΔFRET is measured as an increase of the 485/535 nm FRET ratio.
HEK293-H188-C24 cells stably expressing H188 were plated at 80% confluence on 96-well clear-bottom assay plates (Costar 3904, Corning, NY) coated with rat tail collagen (Collaborative Biomedical Products, Bedford, MA). HEK293 cells stably expressing select GPCRs were transduced for 16 hours with H188 virus at a density of ca. 60,000 cells/well under conditions in which the multiplicity of infection (m.o.i.) was equivalent to 25 viral particles per cell. For all assays, the culture media was then removed and replaced by 200 μl/well of a standard extracellular saline (SES) solution supplemented with 11 mM glucose and 0.1% BSA[31],[34]–[36]. The composition of the SES was (in mM): 138 NaCl, 5.6 KCl, 2.6 CaCl2, 1.2 MgCl2, 11.1 glucose, and 10 Hepes (295 mOsmol, pH 7.4). Real-time kinetic assays of FRET were performed using a FlexStation 3 microplate reader equipped with monochromators (Molecular Devices, Sunnyvale, CA). Excitation light was delivered at 435/9 nm (455 nm cut-off), and emitted light was detected at 485/15 nm (CFP) or 535/15 nm (YFP)[31],[34]–[36]. The emission intensities were the averages of 12 excitation flashes for each time point per well. Test solutions dissolved in SES were placed in V-bottom 96-well plates (Greiner Bio-One, Monroe, NC), and an automated pipetting procedure was used to transfer 50 μl of each test solution to each well of the assay plate containing monolayers of these cells. The 485/535 emission ratio was calculated for each well and the mean +/− s.d. values for 12 wells were averaged. To facilitate comparisons amongst different experiments, these FRET ratio values were normalized using baseline subtraction so that a y-axis value of 1 corresponds to the initial baseline FRET ratio, whereas a value of 2 corresponds to a doubling of the FRET ratio. The time course of the ΔFRET ratio was plotted after exporting data to Origin 8.0 (OriginLab, Northampton, MA). Origin 8.0 was also used for generation of Hill plots describing dose-response relationships.

human GLP-1R = assay: FRET cAMP assay in HEK293-GLP-1R cells (stable human GLP-1R) virally transduced with H188; assay type: cell-based; conditions: HEK293-GLP-1R cells transduced with H188
Method: (§1) HEK293-H188-C24 cells stably expressing H188 were plated at 80% confluence on 96-well clear-bottom assay plates (Costar 3904, Corning, NY) coated with rat tail collagen (Collaborative Biomedical Products, Bedford, MA). HEK293 cells stably expressing select GPCRs were transduced for 16 hours with H188 virus at a density of ca. 60,000 cells/well under conditions in which the multiplicity of infection (m.o.i.) was equivalent to 25 viral particles per cell. For all assays, the culture media was then removed and replaced by 200 μl/well of a standard extracellular saline (SES) solution supplemented with 11 mM glucose and 0.1% BSA[31],[34]–[36]. The composition of the SES was (in mM): 138 NaCl, 5.6 KCl, 2.6 CaCl2, 1.2 MgCl2, 11.1 glucose, and 10 Hepes (295 mOsmol, pH 7.4). Real-time kinetic assays of FRET were performed using a FlexStation 3 microplate reader equipped with monochromators (Molecular Devices, Sunnyvale, CA). Excitation light was delivered at 435/9 nm (455 nm cut-off), and emitted light was detected at 485/15 nm (CFP) or 535/15 nm (YFP)[31],[34]–[36]. The emission intensities were the averages of 12 excitation flashes for each time point per well.

[2] = test system: soluble adenylyl cyclase (sAC); assay: FRET assay of soluble adenylyl cyclase activity in HEK293-sAC cells transduced with H188; assay type: cell-based; conditions: IBMX 50 μM, H188 by viral transduction
Method: These actions of Rp-8-Br-cAMPS-pAB were not reproduced by the negative control 4-acetoxybenzy alcohol (4-Abn-OH) that lacks the cAMP moiety (Fig. 3e1,e2)[36].
HEK293-H188-C24 cells stably expressing H188 were plated at 80% confluence on 96-well clear-bottom assay plates (Costar 3904, Corning, NY) coated with rat tail collagen (Collaborative Biomedical Products, Bedford, MA). HEK293 cells stably expressing select GPCRs were transduced for 16 hours with H188 virus at a density of ca. 60,000 cells/well under conditions in which the multiplicity of infection (m.o.i.) was equivalent to 25 viral particles per cell. For all assays, the culture media was then removed and replaced by 200 μl/well of a standard extracellular saline (SES) solution supplemented with 11 mM glucose and 0.1% BSA[31],[34]–[36]. The composition of the SES was (in mM): 138 NaCl, 5.6 KCl, 2.6 CaCl2, 1.2 MgCl2, 11.1 glucose, and 10 Hepes (295 mOsmol, pH 7.4). Real-time kinetic assays of FRET were performed using a FlexStation 3 microplate reader equipped with monochromators (Molecular Devices, Sunnyvale, CA). Excitation light was delivered at 435/9 nm (455 nm cut-off), and emitted light was detected at 485/15 nm (CFP) or 535/15 nm (YFP)[31],[34]–[36]. […] The 485/535 emission ratio was calculated for each well and the mean +/− s.d. values for 12 wells were averaged. […]

wild-type HEK293 cells = assay: FRET cAMP assay in wild-type HEK293 cells transduced with H188 (negative control); assay type: cell-based, human; conditions: WT HEK293 lacking recombinant receptors, H188 virus; IBMX at 50 μM
Method: as §1

Row | SMILES | Effect on baseline FRET ratio when administered alone [1] | Effect on the cAMP-elevating action of GLP-1 (human GLP-1R) | also measured
1 | CC(=O)Oc1ccc(CSP2(=O)OC[C@H]3O[C@@H](n4c(Br)nc5c(N)ncnc54)[C@H](O)[C@@H]3O2)cc1 (stereo partly drawn) [Rp-8-Br-cAMPS-pAB] | weak partial agonist effect |  | Effect on ΔFRET measured in response to forskolin [1]: inhibited the ΔFRET
2 | Cl.c1ccc(C2CCCC2NC2=NCCCCCCCCCCC2)cc1 (stereo not drawn) [MDL-12,330 A] |  | suppressed the action of GLP-1 | 
3 | Nc1ncnc2c1ncn2[C@H]1CC[C@@H](CO)O1 [DDA] |  | suppressed the action of GLP-1 | 
4 | CC(=O)Oc1ccc(CO)cc1 [4-Abn-OH, 4-acetoxybenzyl alcohol] |  |  | Effect on ΔFRET measured in response to forskolin [1]: not blocked
5 | Cc1ccc(S(=O)(=O)c2c(C)cc(C)cc2C)cc1 [ESI-05] | unaffected |  | Effect on ΔFRET measured in response to 8-pCPT-2′-O-Me-cAMP-AM [1]: without effect
6 | CC1CCc2c(cc(Br)c(F)c2Br)N1C=O (stereo not drawn) [CE3F4] | unaffected |  | Effect on ΔFRET measured in response to 8-pCPT-2′-O-Me-cAMP-AM [1]: reduced
7 | CC(C)Cn1c(=O)n(C)c(=O)c2[nH]cnc21 [IBMX, isobutylmethylxanthine] |  | potentiated the action of GLP-1 | Effect on levels of cAMP in HEK293-sAC cells [2]: raised levels of cAMP; Effect on levels of cAMP in wild-type HEK293 cells (wild-type HEK293 cells): failed to raise levels of cAMP
